Columns and labels:
[1] = target: T1, CYP3A4 (Homo sapiens, UniProt P08684); assay: P450-Glo CYP screening kit, CYP3A4 inhibition; assay type: in vitro ADME; conditions: luminescence, read-out: IC50 3A4
T1 construct: purchased Promega
Text: (§1) P450-Glo™ CYP Screening Kits for CYP1A2, CYP3A4 and CYP2C19 were purchased from Promega. […] Luminescence was quantified using a Victor 3 spectrophotometer (PerkinElmer).

[2] = system: beagle dogs; assay: Urinary glucose excretion in beagle dogs; assay type: in vivo; conditions: 0.03 mg/kg oral, glucose 2 g/kg 1 h post dose; for Urinary Glucose Excretion in Dogs, 0-8 h (mean ± SD): 0-8 h (Table 4); for Urinary Glucose Excretion in Dogs, 0-24 h (mean ± SD): 0-24 h (Table 4); for Urinary Glucose Excretion in Dogs, 8-24 h (mean ± SD): 8-24 h (Table 4)
Experimental: Each test compound was dissolved in 10% PEG400 and administered orally to overnight-fasted beagle dogs by gavage at the dose level of 0.03 mg/kg. Control dogs were given 10% PEG400 only. One hour post dosing, glucose solution (2 g/kg, 5 mL/kg) was administered by oral gavage. Urine was collected within metabolic cages from 0 to 8 hours, and 8 to 24 hours post-dosing for urine volume and glucose measurement. Food was removed 16 hours before dosing and then provided 3 hours after dosing. Water was supplied ad libitum. The concentration of urinary glucose was determined at 8 hours and 24 hours post-dose using a biochemistry analyzer.

[3] = target: T2, CYP1A2 (Homo sapiens, UniProt P05177); assay: P450-Glo CYP screening kit, CYP1A2 inhibition; assay type: in vitro ADME; conditions: luminescence, read-out: IC50 1A2
T2 construct: purchased Promega
T2 sequence (P05177 1-516): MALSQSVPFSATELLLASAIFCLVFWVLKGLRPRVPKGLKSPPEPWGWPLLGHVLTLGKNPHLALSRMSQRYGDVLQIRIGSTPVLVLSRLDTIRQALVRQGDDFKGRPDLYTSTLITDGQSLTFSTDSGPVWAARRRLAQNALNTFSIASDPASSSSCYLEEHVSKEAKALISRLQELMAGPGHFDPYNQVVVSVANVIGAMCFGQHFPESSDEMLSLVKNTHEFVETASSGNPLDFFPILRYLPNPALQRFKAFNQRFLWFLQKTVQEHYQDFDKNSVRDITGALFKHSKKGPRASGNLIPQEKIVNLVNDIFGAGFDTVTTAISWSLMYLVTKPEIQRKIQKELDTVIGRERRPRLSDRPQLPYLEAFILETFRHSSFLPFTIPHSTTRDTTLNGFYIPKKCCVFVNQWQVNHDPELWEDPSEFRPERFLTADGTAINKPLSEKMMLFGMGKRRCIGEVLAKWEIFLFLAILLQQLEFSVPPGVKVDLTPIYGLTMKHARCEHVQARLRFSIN
Text: as §1

[4] = Pharmacokinetic parameters in SD rats; assay type: in vivo, Sprague-Dawley rats; conditions: single oral 3 mg/kg in 30% PEG400, plasma; for CL/F / AUC(0-t): Sprague-Dawley, rat; for AUC(0-t): read-out: AUC0-t (mean ± SD)
Experimental: The pharmacokinetic study of each test compound was conducted in 4 Sprague-Dawley rats following a single oral administration of 3 mg/kg of the compound. The dose was prepared by dissolving test article in appropriate volume of 30% PEG400. The plasma samples were collected from the orbital plexus at 0.083, 0.25, 0.50, 1.0, 2.0, 4.0, 6.0, 8.0, 12 and 24 hours post dose, and the plasma concentrations were determined by a developed LC-MS/MS method.

[5] = Metabolism in SD rats: distribution of metabolites in urine; assay type: in vivo; conditions: male SD rats, 50 mg/kg oral, five consecutive days, HPLC
Experimental: Each test compound was dissolved in 30% PEG400 and administered orally to male SD rats by gavages at the dose level of 50 mg/kg (when using co-crystals, the weight calculation was based on free drug) for five consecutive days. Control rats were given 30% PEG400 only. All rats were housed in metabolic cages individually. Food and water were supplied ad libitum. Clinical observations (with attention to diarrhea symptoms) were performed twice daily. Food and water consumption were determined daily. Urine was collected pre-determined intervals: pre-dose, 0-4 hours, 4-8 hours, and 8-24 hours post-dose. Metabolites were analyzed and identified by LC/MS. The structures of the metabolites were confirmed by re-synthesis or isolation from the urine by preparative HPLC and NMR analysis. On day 6, all animals were sacrificed and gross necropsy was performed. The urine from two rats for each test compound was collected and pooled. The samples were diluted (1 mL urine in 4 mL of methanol) and analyzed by LC-MS: Waters 2695 Separations Module equipped with a Waters 2996 Photodiode Array Detector and a Waters Micromass ZQ Detector; Waters XTerra C18 3.5 μm, 20 mm×2.1 mm column, 1.0 mL/min, detection at 190-400 nm; 1.7 min gradient 10-50% A, followed by 1.8 min gradient 50-95% A, hold 1 min at 95% A; solvent A: 100% acetonitrile+0.045% formic acid; solvent B: Milli-Q water+0.1% formic acid. The urine samples were analyzed from 0-4 hours, 4-8 hours, 8-24 hours and 0-24 hours after administration. The ratio of metabolites was highly consistent within each time for each rat. The metabolites were identified by mass then re-synthesized to confirm their identity and the relative distribution was assayed using HPLC. […] See also FIGS. 1, 2A-2C, 3A-3D, and 4A-4C.

[6] = target: T3, CYP2C19 (Homo sapiens, UniProt P33261); assay: P450-Glo CYP screening kit, CYP2C19 inhibition; assay type: in vitro ADME; conditions: luminescence, read-out: IC50 2C19
T3 construct: purchased Promega
T3 sequence (P33261 whole entry): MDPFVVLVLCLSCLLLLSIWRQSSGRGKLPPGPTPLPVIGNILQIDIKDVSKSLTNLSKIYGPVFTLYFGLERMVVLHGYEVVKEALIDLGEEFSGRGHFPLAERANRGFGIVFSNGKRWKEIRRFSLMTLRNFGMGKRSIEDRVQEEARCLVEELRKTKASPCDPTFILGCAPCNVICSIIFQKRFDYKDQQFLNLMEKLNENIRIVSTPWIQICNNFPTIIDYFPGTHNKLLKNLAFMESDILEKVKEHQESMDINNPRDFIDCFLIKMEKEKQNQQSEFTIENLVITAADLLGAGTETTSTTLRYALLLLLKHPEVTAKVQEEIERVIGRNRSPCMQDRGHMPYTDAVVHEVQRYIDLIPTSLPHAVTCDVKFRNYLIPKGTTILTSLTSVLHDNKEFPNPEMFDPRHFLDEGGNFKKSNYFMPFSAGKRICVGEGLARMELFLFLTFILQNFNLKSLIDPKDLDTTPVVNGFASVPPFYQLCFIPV
Text: as §1

[7] = system: SD rats; assay: Urinary glucose excretion in SD rats; assay type: in vivo; conditions: 1 mg/kg oral
Experimental: Each test compound was dissolved in 30% PEG400 and administered orally to overnight-fasted SD rats by gavage at the dose level of 1 mg/kg. Control rats were given 30% PEG400 only. One hour post dosing, glucose solution (2 g/kg, 10 mL/kg) was administered by oral gavage. Urine was collected within metabolic cages from 0 to 4 hours, and 4 to 24 hours post-dosing for urine volume and glucose measurement. Food was removed 16 hours before dosing and then provided 4 hours after dosing. Water was supplied ad libitum. The concentration of urinary glucose was determined at 4 hours and 24 hours post-dose using a biochemistry analyzer. Results were recorded for the periods 0-4 hours, 4-24 hours and 0-24 hours, and expressed as a percentage of the urinary glucose excretion (UGE) seen with reference compound A, which was run as a positive control in all experiments.

[8] = glucose 2 g/kg 1 h post dose, 0-24 h
[9] = glucose 2 g/kg 1 h post dose, 4-24 h

T1 sequence (P08684 whole entry): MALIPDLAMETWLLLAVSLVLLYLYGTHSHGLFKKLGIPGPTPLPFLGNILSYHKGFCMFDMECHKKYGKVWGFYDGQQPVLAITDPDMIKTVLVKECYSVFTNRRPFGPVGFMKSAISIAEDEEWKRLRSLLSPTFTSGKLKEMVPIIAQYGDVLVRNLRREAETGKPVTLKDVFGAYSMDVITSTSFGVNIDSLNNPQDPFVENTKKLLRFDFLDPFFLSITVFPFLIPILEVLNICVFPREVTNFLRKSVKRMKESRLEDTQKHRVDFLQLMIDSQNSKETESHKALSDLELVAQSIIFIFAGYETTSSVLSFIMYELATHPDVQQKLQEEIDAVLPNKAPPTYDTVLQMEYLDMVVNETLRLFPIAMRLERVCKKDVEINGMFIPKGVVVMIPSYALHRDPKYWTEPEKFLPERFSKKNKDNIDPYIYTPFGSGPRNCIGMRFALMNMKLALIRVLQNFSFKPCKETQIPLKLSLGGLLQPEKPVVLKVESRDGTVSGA

[2H]C([2H])([2H])C([2H])([2H])Oc1ccc(Cc2cc([C@@H]3O[C@H](CO)[C@@H](O)[C@H](O)[C@H]3O)ccc2Cl)cc1 [24c, (2S,3R,4R,5S,6R)-2-(4-chloro-3-(4-(ethoxy-d5)benzyl)phenyl)-6-(hydroxymethyl)tetrahydro-2H-pyran-3,4,5-triol]
IC50 [1]: 500 to 1000 µM
Urinary Glucose Excretion in Dogs, 0-8 h (mean ± SD) [2]: 3472 ± 622 mg
Urinary Glucose Excretion in Dogs, 0-24 h (mean ± SD) [2]: 11964 ± 2190 mg
IC50 [3]: 500 to 1000 µM
CL/F [4]: 2.22 mL/min/kg
AUC(0-t) [4]: 21200 ± 1880 ng·h/mL
Cmax (mean ± SD) [4]: 2285 ± 697 ng/mL
t1/2 (mean ± SD) [4]: 6.05 ± 0.85 h
tmax (mean ± SD) [4]: 1.38 ± 0.75 h
Distribution of Metabolites in Urine (% of total), Peak 1 (Parent) [5]: 45%
IC50 [6]: 168 µM

[2H]C([2H])([2H])Oc1ccc(Cc2cc([C@@H]3O[C@H](CO)[C@@H](O)[C@H](O)[C@H]3O)ccc2Cl)cc1 [24d, (2S,3R,4R,5S,6R)-2-(4-chloro-3-(4-(methoxy-d3)benzyl)phenyl)-6-(hydroxymethyl)tetrahydro-2H-pyran-3,4,5-triol]
IC50 [1]: ~1000 µM
Urinary Glucose Excretion in Rats, 0-4 h, % relative to Ref A ([7]; 0-4 h): 131%
Urinary Glucose Excretion in Rats, 0-24 h, % relative to Ref A ([7]; 0-24 h): 92%
Urinary Glucose Excretion in Rats, 4-24 h, % relative to Ref A ([7]; 4-24 h): 89%
Urinary Glucose Excretion in Rats, 0-4 h (mean ± SD) ([7]; glucose 2 g/kg 1 h post dose, 0-4 h): 251 ± 44 mg
Urinary Glucose Excretion in Rats, 0-24 h (mean ± SD) [7, 8]: 2234 ± 199 mg
Urinary Glucose Excretion in Rats, 4-24 h (mean ± SD) [7, 9]: 1983 ± 167 mg
IC50 [3]: > 1000 µM
CL/F [4]: 7.18 mL/min/kg
AUC(0-t) [4]: 6680 ± 350 ng·h/mL
Cmax (mean ± SD) [4]: 1494 ± 428 ng/mL
t1/2 (mean ± SD) [4]: 6.34 ± 2.79 h
tmax (mean ± SD) [4]: 1.19 ± 0.94 h
IC50 [6]: 120 µM

CCOc1ccc(Cc2cc([C@@H]3O[C@H](CO)[C@@H](O)[C@H](O)[C@H]3O)ccc2Cl)cc1 [Ref A, (2S,3R,4R,5S,6R)-2-(4-chloro-3-(4-ethoxybenzyl)phenyl)-6-(hydroxymethyl)tetrahydro-2H-pyran-3,4,5-triol, reference compound]
IC50 [1]: ~400 µM
IC50 [3]: 426 µM
CL/F [4]: 4.5 mL/min/kg
AUC(0-t) [4]: 11300 ± 2600 ng·h/mL
Cmax (mean ± SD) [4]: 1603 ± 425 ng/mL
t1/2 (mean ± SD) [4]: 4.52 ± 0.98 h
tmax (mean ± SD) [4]: 0.88 ± 0.75 h
Distribution of Metabolites in Urine (% of total), Peak 1 (Parent) [5]: 40%
IC50 [6]: 61.1 µM

[2H][C@@]1(c2ccc(Cl)c(Cc3ccc(OCC)cc3)c2)O[C@H](CO)[C@@H](O)[C@H](O)[C@H]1O [compound 5, (2S,3R,4R,5S,6R)-2-(4-chloro-3-(4-ethoxybenzyl)phenyl)-6-(hydroxymethyl)tetrahydro-2H-pyran-2-d-3,4,5-triol]
IC50 [1]: 500 to 1000 µM
Urinary Glucose Excretion in Dogs, 0-8 h (mean ± SD) [2]: 3765 ± 808 mg
Urinary Glucose Excretion in Dogs, 0-24 h (mean ± SD) [2]: 12676 ± 2150 mg
Urinary Glucose Excretion in Dogs, 8-24 h (mean ± SD) [2]: 8910 ± 1700 mg
Urinary Glucose Excretion in Rats, 0-24 h (mean ± SD) [7, 8]: 2650 ± 385 mg
Urinary Glucose Excretion in Rats, 4-24 h (mean ± SD) [7, 9]: 2457 ± 369 mg
IC50 [3]: 500 to 1000 µM
IC50 [6]: 104 µM

[2H]C([2H])(c1ccc(OCC)cc1)c1cc([C@@H]2O[C@H](CO)[C@@H](O)[C@H](O)[C@H]2O)ccc1Cl [compound 9, (2S,3R,4R,5S,6R)-2-(4-chloro-3-((4-ethoxyphenyl)methyl-d2)phenyl)-6-(hydroxymethyl)tetrahydro-2H-pyran-3,4,5-triol]
IC50 [1]: ~1000 µM
Urinary Glucose Excretion in Dogs, 0-8 h (mean ± SD) [2]: 3396 ± 442 mg
Urinary Glucose Excretion in Dogs, 0-24 h (mean ± SD) [2]: 10228 ± 895 mg
Urinary Glucose Excretion in Dogs, 8-24 h (mean ± SD) [2]: 6832 ± 2555 mg
IC50 [3]: ~500 µM
CL/F [4]: 3.2 mL/min/kg
AUC(0-t) [4]: 15300 ± 2380 ng·h/mL
Cmax (mean ± SD) [4]: 1830 ± 365 ng/mL
t1/2 (mean ± SD) [4]: 5.14 ± 1.28 h
tmax (mean ± SD) [4]: 1.69 ± 0.59 h
Distribution of Metabolites in Urine (% of total), Peak 1 (Parent) [5]: 55%
IC50 [6]: 50 to 100 µM
